The record followed here is article PMC9144902, “Metal(II) Complexes of the Fluoroquinolone Fleroxacin: Synthesis, Characterization and Biological Profile” (Pharmaceutics, 2022).

Assay [1] concerns Bacillus subtilis ATCC 6633. Put plainly: Antimicrobial activity, MIC determination. The format is cell-based. The note with it: B. subtilis; 24-h incubation, 37°C. The procedure: (§1) The in vitro antimicrobial activity of the compounds was evaluated by determining the minimum inhibitory concentration (MIC) against the Gram-positive microorganisms Staphylococcus aureus ATCC 6538 (S. aureus) and Bacillus subtilis ATCC 6633 (B. subtilis) and the Gram-negative microorganism Xanthomonas campestris ATCC 1395 (X. campestris). The affinity of the compounds for bovine serum albumin (BSA) and human serum albumin (HSA) was studied by fluorescence emission spectroscopy, and the corresponding binding constants were determined. Furthermore, the interaction of the compounds with calf-thymus DNA (CT DNA) was investigated to determine the possible mode of interaction by the following methods: (i) UV–vis spectroscopy (where the DNA-binding constants of the complexes (Kb) were also determined), (ii) DNA-viscosity measurements, (iii) cyclic voltammetry and (iv) competitive DNA-binding studies with the classic intercalator ethidium bromide (EB) performed by fluorescence emission spectroscopy.
(§2) Three bacterial strains, one Gram(−) (X. campestris) and two Gram(+) (S. aureus and B. subtilis), were used in order to test the antimicrobial activity of the compounds.
(§3) The antimicrobial activity of the compounds was evaluated b y determining their respective MIC values towards one Gram–( –) (Xanthomonas campestris ATCC 1395 (X. campestris)) and two Gram–(+) (Staphylococcus aureus ATCC 6538 (S. aureus) and Bacillus subtilis ATCC 6633 (B. subtilis)) bacterial species. Cultures of these microbial strains were grown on a rich selective agar medium and stored at 4°C. The selective media used were Nutrient Agar or Broth for B. subtilis and S. aureus, and Yeast Mold Agar or Broth for X. campestris . Cells picked from the surface of the stored cultures were used to initiate liquid pre–cultures of the same selective medium at an initial turbidity of roughl y 1 McFarland unit. Pre–cultures were incubated for 24 h in a rotar y sh aking incubator and subsequently the y were used to inoculate the test cultures used for the determination of MIC at an initial turbidity of 0.5 McFarland units. The test cultures consisted of Mueller–Hinton broth (Deben Diagnostics Ltd) containing different concentrations of the compounds. Different concentrations were achieved as follows: the compounds were freshly dissolved in DMSO to a concentration of 1 mg/mL and they were diluted with DMSO, using the method of progressive double dilution. Therefore, working solutions with decreasing concentrations of the compounds under investigation were achieved. The working solutions were subsequently diluted to the final desired concentration b y addition to the growth medium at a proportion of 2:98. MIC values were determined as the lowest concentrations of the tested compounds that inhibited visible growth of each respective organism after a 24–h incubation [ S1]. Bacterial growth was determined b y measuring the turbidit y of appropriatel y diluted cultures at 600 nm with reference to equall y diluted sterile growth medium and the inhibition achieved was calculated b y comparing the turbidit y of each culture to the average of the turbidit y of three non–inhibited cultures. All test cultures were grown in triplicates and for the determination of MIC, growth had to be inhibited in at least two cultures of the triplicate. In cubation temperatur e at all stages was 37°C ex cept for X. campestris t h at was cultivated at 28°C [S2]. […]
(§4) The fluorescence spectra of the compounds were recorded under the same experimental conditions and presented a low–intensity emission band in the region 405–410 nm .

For assay [2], the system named is Staphylococcus aureus ATCC 6538. Put plainly: Antimicrobial activity, MIC determination. The format is cell-based. The note with it: S. aureus; 24-h incubation, 37°C. The procedure: as §1, §2, §3, §4
For assay [3], the system named is Xanthomonas campestris ATCC 1395. Put plainly: Antimicrobial activity, MIC determination. The format is cell-based. The note with it: X. campestris; 24-h incubation, 28°C. The protocol:
as §1, §2, §3, §4

The target in assay [4] is T1, bovine serum albumin (BSA) (Bos taurus, UniProt P02769).
T1 construct: purchased
T1 sequence (P02769 25-607): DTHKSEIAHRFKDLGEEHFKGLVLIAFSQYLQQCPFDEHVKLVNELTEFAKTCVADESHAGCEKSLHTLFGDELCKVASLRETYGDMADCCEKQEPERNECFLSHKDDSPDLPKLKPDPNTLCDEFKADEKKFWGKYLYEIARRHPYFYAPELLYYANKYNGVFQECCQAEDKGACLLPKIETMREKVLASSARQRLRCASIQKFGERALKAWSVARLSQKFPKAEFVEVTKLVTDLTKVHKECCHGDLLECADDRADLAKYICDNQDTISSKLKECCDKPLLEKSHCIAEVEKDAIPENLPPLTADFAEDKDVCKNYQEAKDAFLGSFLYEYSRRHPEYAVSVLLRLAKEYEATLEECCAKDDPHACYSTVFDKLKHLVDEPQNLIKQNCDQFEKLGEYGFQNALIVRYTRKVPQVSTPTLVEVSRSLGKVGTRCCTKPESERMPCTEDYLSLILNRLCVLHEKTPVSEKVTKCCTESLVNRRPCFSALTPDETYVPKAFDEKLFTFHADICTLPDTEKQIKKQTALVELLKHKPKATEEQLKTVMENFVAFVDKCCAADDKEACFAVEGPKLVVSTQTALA
Kind of assay: Albumin binding by tryptophan fluorescence emission quenching. The note with it: for K(BSA), BSA-binding constant / kq(BSA), BSA-quenching constant: BSA 3 μM; for K(BSA), BSA-binding constant: buffer pH 7.0, Scatchard equation; for kq(BSA), BSA-quenching constant: buffer pH 7.0, λexc 295 nm, Stern–Volmer, τ0 = 10^–8 s; for BSA fluorescence, % of the initial fluorescence intensity (I/Io): λem,max = 342 nm, final value of titration (Figure S11). The procedure:
(§5) Serum albumins (Sas) are the most abundant serum proteins and play a role in the circulatory system, primarily in the transport of drugs and other bioactive small molecules through the bloodstream.
(§6) The SA-quenching constants (kq) for the compounds (Table 5) were calculated with the Stern–Volmer quenching equation (Equations (S2) and (S3)).
(§7) Albumin-binding constants (K) were calculated using the Scatchard equation (Equation (S4)). […]
(§8) S2. Interaction with serum albumins
(§9) The albumin–binding study for the compounds was carried out b y fluorescence emission

For assay [5], the target named is T2, human serum albumin (HSA) (Homo sapiens, UniProt P02768).
T2 construct: purchased
T2 sequence (P02768 25-609): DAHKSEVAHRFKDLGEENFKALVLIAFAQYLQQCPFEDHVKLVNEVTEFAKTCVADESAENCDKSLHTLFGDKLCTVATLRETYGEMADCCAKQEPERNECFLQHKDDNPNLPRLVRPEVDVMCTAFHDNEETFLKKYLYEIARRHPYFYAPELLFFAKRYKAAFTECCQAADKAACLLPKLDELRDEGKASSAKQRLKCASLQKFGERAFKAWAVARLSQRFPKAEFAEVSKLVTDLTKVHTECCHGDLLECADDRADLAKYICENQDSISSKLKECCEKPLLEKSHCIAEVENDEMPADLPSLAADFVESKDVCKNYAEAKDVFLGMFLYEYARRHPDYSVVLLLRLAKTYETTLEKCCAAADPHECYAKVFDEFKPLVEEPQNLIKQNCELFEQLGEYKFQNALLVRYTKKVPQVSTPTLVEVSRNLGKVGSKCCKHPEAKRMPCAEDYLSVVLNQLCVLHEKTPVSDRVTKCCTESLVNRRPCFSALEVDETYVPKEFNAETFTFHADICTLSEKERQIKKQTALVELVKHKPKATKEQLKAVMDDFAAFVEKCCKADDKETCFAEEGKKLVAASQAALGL
Described as above. The note with it: for K(HSA), HSA-binding constant / kq(HSA), HSA-quenching constant: HSA 3 μM; for K(HSA), HSA-binding constant: buffer pH 7.0, Scatchard equation; for kq(HSA), HSA-quenching constant: buffer pH 7.0, λexc 295 nm, Stern–Volmer, τ0 = 10^–8 s; for HSA fluorescence, % of the initial fluorescence intensity (I/Io): λem,max = 351 nm, final value of titration (Figure S10). The protocol:
as §5, §6, §7, §8, §9

Another assay deals with EB–DNA adduct (CT DNA). Kind of assay: Competitive study with EB (EB–DNA fluorescence quenching). The note with it: for Ksv, Stern–Volmer constant: EB–DNA adduct; for ΔI/Io, percentage of EB–DNA fluorescence quenching: [EB] = 20 μM, [DNA] = 26 μM, λexc 540 nm, λem 592 nm; for EB–DNA relative fluorescence emission intensity, % of the initial (I/Io): λemission = 592 nm, final value (up to), Figure S14; for kq, EB–DNA quenching constant: τo = 23 ns. Format: binding, calf. The procedure:
Ethidium bromide is a typical marker of intercalation because it can intercalate between adjacent DNA bases with its planar phenanthridine ring.
The fluorescence emission spectra of the EB–DNA adduct ([EB] = 20 μM, [DNA] = 26 μM) in the absence and presence of the compounds were recorded at increasing amounts of the respective compounds. […] As a conclusion, an intercalative interaction of the complexes with CT DNA can be proposed.
The values of the Stern–Volmer constants (Ksv) for the compounds were calculated using the linear Stern–Volmer equation (Equation (S2)) and were of the order of 10^5 M^−1 (Table 8), indicating tight binding of the complexes with DNA [61]. The Ksv values for the complexes are in the range found for a number of metal(II)–quinolone complexes, and complex 12 presents the highest Ksv value (Ksv = 7.25(±0.30) × 10^5 M^−1) among the compounds studied. In addition, the EB–DNA quenching constants (kq) for the compounds were calculated with Equation (S3), assuming τo = 23 ns as the fluorescence lifetime. The values of kq (Table 8) are much higher than the value of 10^10 M^−1s^−1, indicating a static mechanism of EB–DNA fluorescence quenching induced by the compounds, which can result from the formation of a new adduct apparently consisting of each complex and DNA [61].
In order to determine and confirm the DNA–binding mode of the compounds, a competitive study with EB as an intercalating marker is performed b y fluorescence emission spectroscopy.
Therefo re, the E B–displacing abilit y of the compounds from its EB –DN A conjugate was ex amined.
The DNA–EB adduct was prepared b y addition of 20 μM EB and 26 μM CT DNA in buffer solution (150 mM NaCl and 15 mM trisodium citrate at pH 7.0). The potential intercalation of the compounds between the DNA–bases was studied by the addition of a certain amount of the compound solution into the EB–DNA adduct solution. The influence of the compounds on the EB – DNA solution was monitored through the changes of the fluorescence emission spectra at excitation […]
wavelen gth (λex ) at 540 nm [S3]. […]
room temperature in solution or in the presence of DNA, under the same experimental conditions (λex = 540 nm). Bearing t hat in mind, the observed quenching of the EB–DNA solution is evidentl y associated to the displacement of EB from its EB–DNA adduct.
The quenching effici ency (KSV) for each compound was assessed according to the Stern – Volmer equation: Io =1+ k τ [Q] = 1+ K [Q], (eq. S2) [S3] where I0 and I = the fluorescence […]
emission intensities of EB–DNA in the absence and presence of the quencher, respectivel y, [Q] = the concentration of the quencher (i.e. compounds). KSV is obtained from t he Stern–Volmer plots b y the slope of the diagram I0/ I versus [Q]. Taking τ0 = 23 ns as the fluorescence lifetime of the EB– DNA s ystem [S5], the EB –DNA quenching constants (k q) of the compounds can be determined accordin g to eq.S3: K SV = kqτo . […]
[S2] Irgi, E.P.; Geromichalos, G.D.; Balala, S.; Kljun, J.; Kalogiannis, S.; Papadopoulos, A.; Turel, I.; Psomas, G. Cobalt(II) complexes with quinolone antimicrobial drug oxolinic acid: […]
[ S 5] Heller, D.P.; Greenstock, C.L. Fluorescence lifetime analysis of DNA intercalated ethidium bromide and quenching by free d ye. Biophys. Chem . 1994, 50, 305–312.

The structures appear in SMILES notation.

Regarding `CN1CCN(c2c(F)cc3c(=O)c(C(=O)[O-])cn(CCF)c3c2F)CC1.CN1CCN(c2c(F)cc3c(=O)c(C(=O)[O-])cn(CCF)c3c2F)CC1.CO.CO.[Zn+2]` [complex 3, [Zn(flrx)2(MeOH)2]], in assay [1], the MIC (in general, the least concentration at which growth counts as inhibited) turned out to be 8 mg/L and the “MIC (values in parentheses)” value came out at 9.2 µM. Moreover, in assay [2], the MIC was 8 mg/L and the “MIC (values in parentheses)” value came to 9.2 µM. In assay [3], the MIC came to 32 mg/L and the “MIC (values in parentheses)” value was found to be 36.8 µM. In addition, in assay [4], the “K(BSA), BSA-binding constant” value was 1.86(±0.08) × 10^5 M^−1; the “kq(BSA), BSA-quenching constant” value is recorded as 4.55(±0.21) × 10^13 M^−1s^−1; the “BSA fluorescence, % of the initial fluorescence intensity (I/Io)” value (“BSA fluorescence, %” below) amounted to 10.8%. For the same compound, in assay [5], the “K(HSA), HSA-binding constant” value is recorded as 6.15(±0.25) × 10^4 M^−1; the “kq(HSA), HSA-quenching constant” value was 2.26(±0.10) × 10^13 M^−1s^−1; the “HSA fluorescence, % of the initial fluorescence intensity (I/Io)” value (“HSA fluorescence, %” for short) amounted to 19.8%. Besides, in the assay on EB–DNA adduct (CT DNA), the “Ksv, Stern–Volmer constant” value was 6.07(±0.17) × 10^5 M^–1; the “ΔI/Io, percentage of EB–DNA fluorescence quenching” value (from here on “ΔI/Io, percentage”) was found to be 85.9%; the “EB–DNA relative fluorescence emission intensity, % of the initial (I/Io)” value was 14.1%; the “kq, EB–DNA quenching constant” value is reported as 2.64(±0.07) × 10^13 M^−1s^−1.

Turning to `CN1CCN(c2c(F)cc3c(=O)c(C(=O)[O-])cn(CCF)c3c2F)CC1.CN1CCN(c2c(F)cc3c(=O)c(C(=O)[O-])cn(CCF)c3c2F)CC1.[Zn+2].c1cnc2c(c1)ccc1cccnc12` [complex 14, [Zn(flrx)2(phen)]], in assay [1], the MIC was 8 mg/L and the “MIC (values in parentheses)” value was determined as 8.1 µM. In addition, in assay [2], the MIC came out at 8 mg/L and the “MIC (values in parentheses)” value is 8.1 µM. In assay [3], the MIC stood at 16 mg/L and the “MIC (values in parentheses)” value came to 16.3 µM. Moreover, in assay [4], the “K(BSA), BSA-binding constant” value was 5.56(±0.25) × 10^4 M^−1; the “kq(BSA), BSA-quenching constant” value is listed as 1.61(±0.07) × 10^13 M^−1s^−1; the “BSA fluorescence, %” value amounted to 25.8%. In assay [5], the “K(HSA), HSA-binding constant” value was 6.16(±0.43) × 10^4 M^−1; the “kq(HSA), HSA-quenching constant” value is recorded as 1.10(±0.04) × 10^13 M^−1s^−1; the “HSA fluorescence, %” value is given as 33.5%. In the assay with EB–DNA adduct (CT DNA), the “Ksv, Stern–Volmer constant” value was 3.03(±0.05) × 10^5 M^–1; the “ΔI/Io, percentage” value is 77.9%; the “EB–DNA relative fluorescence emission intensity, % of the initial (I/Io)” value came out at 22.1%; the “kq, EB–DNA quenching constant” value was 1.32(±0.02) × 10^13 M^−1s^−1.

In the case of `CN1CCN(c2c(F)cc3c(=O)c(C(=O)[O-])cn(CCF)c3c2F)CC1.CN1CCN(c2c(F)cc3c(=O)c(C(=O)[O-])cn(CCF)c3c2F)CC1.[Zn+2].c1ccc(Nc2ccccn2)nc1` [complex 13, [Zn(flrx)2(bipyam)]], in assay [1], the MIC is 4 mg/L and the “MIC (values in parentheses)” value stood at 4.1 µM. Moreover, in assay [2], the MIC came out at 8 mg/L and the “MIC (values in parentheses)” value was found to be 8.2 µM. In addition, in assay [3], the MIC turned out to be 16 mg/L and the “MIC (values in parentheses)” value stood at 16.4 µM. In assay [4], the “K(BSA), BSA-binding constant” value was 3.60(±0.14) × 10^4 M^−1; the “kq(BSA), BSA-quenching constant” value is on record as 3.37(±0.14) × 10^13 M^−1s^−1; the “BSA fluorescence, %” value is 14.6%. Further, in assay [5], the “K(HSA), HSA-binding constant” value is reported as 3.69(±0.14) × 10^4 M^−1; the “kq(HSA), HSA-quenching constant” value is given as 1.23(±0.05) × 10^13 M^−1s^−1; the “HSA fluorescence, %” value is listed as 27.9%. Moreover, in the assay on EB–DNA adduct (CT DNA), the “Ksv, Stern–Volmer constant” value was 6.51(±0.19) × 10^5 M^–1; the “ΔI/Io, percentage” value was determined as 81.8%; the “EB–DNA relative fluorescence emission intensity, % of the initial (I/Io)” value is on record as 18.2%; the “kq, EB–DNA quenching constant” value is 2.84(±0.08) × 10^13 M^−1s^−1.
